Tests used:
MG63 cells [1] = assay: Cell adhesion assay on coated culture plates; format: cell-based, human; details: plates coated with 0.1 μM recombinant oligopeptide; control poly-L-lysine-coated plate; P<0.05
Procedure: (§1) MG63 cells (Korean Cell Line Bank, KCLB), used in the present invention, which is a human osteosarcoma cell line, were cultured in Dulbecco's modified Eagle's medium (DMEM) containing 10% (v/v) fetal bovine serum and 0.1% (w/v) gentamycin at 37° C., in a humidified 5% CO2 incubator.
24-well plates were coated with 0.1 μM recombinant oligopeptide or poly-L-lysine at a predetermined concentration overnight at 4° C. and blocked with PBS containing 1% (w/v) BSA for 30 min, then rinsed with PBS.
The MG63 cells were serum-starved for 24 hours, harvested in 0.02% (w/v) trypsin, 1 mM EDTA, and resuspended in DMEM. After being washed 3 times with DMEM containing 100 μg/Ml soybean trypsin inhibitor and 1% (w/v) BSA, 5×10^4 MG63 cells in DMEM were plated in each well to culture at 37° C. for 30 min or 1 hour. Suspensions of control cells were maintained in BSA-coated plates at a given time. After 30 min, adherent cells were washed twice with PBS, fixed with 3% (w/v) paraformaldehyde, and stained with 0.25% (w/v) Crystal Violet (Sigma, USA) in 2% (v/v) ethanol/water. After washing with distilled water, the plates were allowed to dry. The absorbancy was measured at 570 nm to represent the mean±SD (standard deviation). Non-specific adhesion was determined using 1% BSA as a negative control group. […]

MG63 cells [2] = assay: ALP (alkaline phosphatase) assay, osteoblastic cell differentiation; format: cell-based, human; details: 7 days, control poly-L-lysine-coated
Procedure: as §1
In order to determine osteoblastic cell differentiation, ALP (Alkaline phosphatase) activity that implies in vitro bone formation activity, was measured. 5×10^4 MG63 cells were cultured in 0.1 μM recombinant oligopeptide-coated or poly-L-lysine-coated six-well plates for 7 days. Then, they were washed with PBS and lysed in 1.5 M Tris/HCl (pH 10.2) containing 1 mM ZnCl2, 1 mM MgCl2 and 1% (w/v) Triton X-100 at 4° C. for 10 min. After clarifying the cell lysates by centrifugation, the ALP activity was assayed according to the manufacturer's protocol for the ALP assay kit (Sigma, USA).

Substance: DPHSRN-SITGTNLTPGYTITVYAVTG-RGD (DPHSRNSITGTNLTPGYTITVYAVTGRGD) [F20]
- cell adhesion capacity (absorbance at 570 nm) compared with control plates (MG63 cells [1]): 2 fold
- ALP activity of MG63 cells compared with control plates (MG63 cells [2]; 0.1 μM oligopeptide-coated plates): 2.5 fold
- ALP activity of MG63 cells compared with control plates (MG63 cells [2]; 0.1 μM oligopeptide-coated six-well plates, n=3, P<0.05): 2.5 times

From patent US7897722B2, “Composition of bone formation with PHSRN-RGD containing oligopeptide” (Seoul National University Industry Foundation, priority 2007, dated 2011)
